Results published in patent EP4028131B1, “HETEROAROMATIC COMPOUNDS USEFUL IN THERAPY” (CUROVIR AB, priority 2019, dated 2021).
pIC50: −log10 of the molar value.

Legend:
RSV strain A2 = experiment: standard plaque reduction assay for anti-RSV activity; conditions: for SI (CC50/IC50): calculated selectivity index, HEp-2 cells; for pIC50: human respiratory syncytial virus, HEp-2, read-out: IC50 (RSV)
[1] = cell viability assay using tetrazolium salt (MTS); conditions: human
Description: The cell viability assay using tetrazolium salt (MTS) was also performed in HEp-2 cells.

RSV [2] = experiment: plaque titration assay of extracellular and cell-associated virus yield; type: cell-based; conditions: HEp-2 cells, MOI of 3, compound at 0.2 µM
Description: The titer of extracellular (EX) and cell-associated (CA) RSV after incubation in Hep-2 cells at a multiplicity of infection (MOI) of 3 was determined by a plaque titration assay. Infected cells were harvested by scraping into fresh supernatant medium and then subjected to a rapid freeze-thaw cycle at -80 °C ethanol and a 37 °C water bath, respectively, to release infectious virus.

RSV [3] = experiment: time-of-addition study of antiviral effect; type: cell-based; conditions: HEp-2 cells, compound at 0.2 µM added from -1h to 6h relative to infection
Description: A time-of-addition study was performed using the compounds of Examples 25 and 61.

Cc1cc(CNc2cc(C)nc3c(-c4ccc5c(c4)c(C)nn5C)c(C)nn23)ccn1 [Example 5, 3-(1,3-dimethyl-1H-indazol-5-yl)-2,5-dimethyl-N-[(2-methylpyridin-4-yl)methyl]pyrazolo[1,5-a]pyrimidin-7-amine]
SI (CC50/IC50) (RSV strain A2): 450 | pIC50 (RSV strain A2): 7.40 | CC50 [1]: 18 µM

Cc1cc(NCc2ccncc2)c2nc(C)c(-c3ccc4c(c3)c(C)nn4C)n2n1 [Example 61, 3-(1,3-dimethyl-1H-indazol-5-yl)-2,6-dimethyl-N-(pyridin-4-ylmethyl)imidazo[1,2-b]pyridazin-8-amine]
inhibition of cell-associated (CA) RSV yield (RSV [2]): approximately 1 log10 | inhibition of extracellular (EX) RSV yield (RSV [2]): approximately 1 log10 | SI (CC50/IC50) (RSV strain A2): 514 | pIC50 (RSV strain A2): 7.47 | CC50 [1]: 18 µM | time dependency of inhibition of RSV yield (RSV [3]): time-independent inhibition of RSV yield

Cc1cc(CCCOc2c(C)cc(-c3noc(C(F)(F)F)n3)cc2C)on1 [Pleconaril, reference compound]
SI (CC50/IC50) (RSV strain A2): 38 | pIC50 (RSV strain A2): 5.10 | CC50 [1]: 300 µM

COc1ccc(-c2c(C)nn3c(NCc4ccc(S(N)(=O)=O)cc4)nc(C)nc23)cc1OC [Example 45, 4-[[[8-(3,4-dimethoxyphenyl)-2,7-dimethylpyrazolo[1,5-a][1,3,5]triazin-4-yl]amino]methyl]benzenesulfonamide]
SI (CC50/IC50) (RSV strain A2): >7143 | pIC50 (RSV strain A2): 7.15 | CC50 [1]: > 500 µM

CC(=O)Nc1nc(C)c(-c2ccc(Cl)c(S(=O)(=O)NCCO)c2)s1 [PIK-93, reference compound]
pIC50 (RSV strain A2): 6.40

COc1ccc(-c2c(C)nn3c(NCc4ccc(C)nc4)cc(C)nc23)cc1OC [Example 29, 3-(3,4-dimethoxyphenyl)-2,5-dimethyl-N-[(6-methyl-3-pyridyl)methyl]pyrazolo[1,5-a]pyrimidin-7-amine]
SI (CC50/IC50) (RSV strain A2): 150 | pIC50 (RSV strain A2): 7.40 | CC50 ([1]; HEp-2 cells): 60 µM

CCc1cc(CNc2cc(C)nc3c(-c4ccc5c(c4)c(C)nn5C)c(C)nn23)ccn1 [Example 6, 3-(1,3-dimethyl-1H-indazol-5-yl)-2,5-dimethyl-N-[(2-ethylpyridin-4-yl)methyl]pyrazolo[1,5-a]pyrimidin-7-amine]
SI (CC50/IC50) (RSV strain A2): 3200 | pIC50 (RSV strain A2): 7.30 | CC50 [1]: 160 µM

Cc1cc(NCc2ccncc2)n2nc(C)c(-c3ccc4c(c3)c(C)nn4C)c2n1 [Example 68, 3-(1,3-dimethyl-1H-indazol-5-yl)-2,5-dimethyl-N-(pyridin-4-ylmethyl)pyrazolo[1,5-a]pyrimidin-7-amine]
SI (CC50/IC50) (RSV strain A2): 1000 | pIC50 (RSV strain A2): 7.40 | CC50 [1]: 40 µM

COc1ccc(-c2c(C)nn3c(NCc4cccc(S(C)(=O)=O)c4)cc(C)nc23)cc1OC [Example 25, 3-(3,4-dimethoxyphenyl)-2,5-dimethyl-N-[(3-methylsulfonylphenyl)methyl]pyrazolo[1,5-a]pyrimidin-7-amine]
inhibition of cell-associated (CA) RSV yield (RSV [2]): approximately 1 log10 | inhibition of extracellular (EX) RSV yield (RSV [2]): approximately 1 log10 | SI (CC50/IC50) (RSV strain A2): >25000 | pIC50 (RSV strain A2): 7.70 | CC50 [1]: > 500 µM | time dependency of inhibition of RSV yield (RSV [3]): time-independent inhibition of RSV yield

COc1ccc(-c2c(C)nn3c(NCc4ccncc4)nc(C)nc23)cc1OC [Example 38, 8-(3,4-dimethoxyphenyl)-2,7-dimethyl-N-(4-pyridylmethyl)pyrazolo[1,5-a][1,3,5]triazin-4-amine]
SI (CC50/IC50) (RSV strain A2): 667 | pIC50 (RSV strain A2): 7.05 | CC50 [1]: 60 µM

COc1ccc(-c2c(C)nc3c(NCc4ccncc4)cc(C)nn23)cc1OC [Example 1, 3-(3,4-dimethoxyphenyl)-2,6-dimethyl-N-(pyridin-4-ylmethyl)imidazo[1,2-b]pyridazin-8-amine]
SI (CC50/IC50) (RSV strain A2): 2000 | pIC50 (RSV strain A2): 7.52 | CC50 [1]: 60 µM
